Results taken from publication PMC4183655, “Discovery and Optimization of Small-Molecule Ligands for the CBP/p300 Bromodomains” (Journal of the American Chemical Society, 2014).
Like-named read-outs stand apart in the source and are kept apart here.

How the values were obtained:
BRD4(1) [1] = target: T1, BRD4(1) (Homo sapiens, UniProt O60885); experiment: Isothermal titration calorimetry (ITC); conditions: for Selectivity for CBP over BRD4(1): from ITC Kd values; for ITC 9T∆S, BRD4(1): At T = 298.15 K
CBP [2] = target: T2, CBP (Homo sapiens, UniProt Q92793); experiment: Isothermal titration calorimetry (ITC); conditions: for ITC 9T∆S, CBP: At T = 298.15 K
T2 sequence (Q92793 1085-1192 limits assumed): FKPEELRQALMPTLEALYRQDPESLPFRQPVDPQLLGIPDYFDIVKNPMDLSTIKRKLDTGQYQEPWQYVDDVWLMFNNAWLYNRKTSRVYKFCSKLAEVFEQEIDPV

CBP [3] = target: T2, CBP; experiment: DSF (ΔTm) thermal stability assay; format: binding; conditions: compound concentration 10 μM; mean ± SEM (number of measurements)
CBP [4] = target: T2, CBP; experiment: Peptide displacement AlphaScreen; format: binding
BRD4(1) [5] = target: T1, BRD4(1); experiment: DSF (ΔTm) thermal stability assay; format: binding; conditions: compound concentration 10 μM; mean ± SEM (number of measurements)
CBP [6] = conditions: cited from earlier work
BRD4(1) [7] = target: T1, BRD4(1); experiment: Peptide displacement AlphaScreen; format: binding
CBP BRD = conditions: cited from earlier work
[8] = test system: GFP-tagged 3 × CBP BRD construct; experiment: Fluorescence recovery after photo-bleaching (FRAP) assay; conditions: HeLa cells
BRD4(1) [9] = conditions: cited from earlier work
[10] = mean ± SEM (number of measurements), read-out: CBP AlphaScreen pIC50 (converted)

SMILES | ΔTm at 10 µM (CBP [3]) | ITC N (molar binding ratio of the ligand-protein interaction), BRD4(1) (BRD4(1) [1]) | ITC ∆G, BRD4(1) (BRD4(1) [1]) | ITC ∆H, BRD4(1) (BRD4(1) [1]) | ITC 9T∆S, BRD4(1) (BRD4(1) [1]) | ITC N (molar binding ratio of the ligand-protein interaction), CBP (CBP [2]) | ITC ∆G, CBP (CBP [2]) | ITC ∆H, CBP (CBP [2]) | ITC 9T∆S, CBP (CBP [2]) | Kd (CBP [2]; ITC Ka, CBP) | other results
Cc1noc(C)c1-c1ccc2c(c1)nc(CCn1ccc3ccccc31)n2CCN1CCOCC1 [Compound 36] | 8.9 °C |  |  |  |  |  |  |  |  |  | Kd (BRD4(1) [1]; ITC Kd BRD4(1), 15 °C): 660 ± 55 nM; Selectivity for CBP over BRD4(1) (BRD4(1) [1]): 22-fold; Kd (CBP [2]; ITC Kd CBP, 15 °C): 30 ± 2.1 nM
Cc1noc(C)c1-c1ccc2c(c1)nc(CCc1nc3ccccc3s1)n2CCN1CCOCC1 [Compound 35] |  | 0.645 ± 0.00594 | -8.10 kcal/mol | -9.34 ± 0.118 kcal/mol | 1.240 kcal/mol | 0.703 ± 0.00135 | -9.94 kcal/mol | -9.30 ± 0.0342 kcal/mol | -0.638 kcal/mol | 30.2 nM | Kd (BRD4(1) [1]; ITC Ka, BRD4(1)): 662 nM
Cc1noc(C)c1-c1ccc2c(c1)nc(CCc1ccccc1)n2CCN(C)C [Compound 12] | 6.3 °C |  |  |  |  |  |  |  |  |  | IC50 (CBP [4]; [10]): 501 nM; ΔTm at 10 µM (BRD4(1) [5]): 2.9 °C
Cc1noc(C)c1-c1ccc2c(c1)nc(CCn1ccc3ccccc31)n2C[C@H](C)N1CCOCC1 [Compound 61] | ~10 °C | 0.862 ± 0.00663 | -8.09 kcal/mol | -9.21 ± 0.0912 kcal/mol | 1.12 kcal/mol | 1.01 ± 0.00517 | -8.58 kcal/mol | -12.5 ± 0.0855 kcal/mol | 3.94 kcal/mol | 239 nM | IC50 (CBP [4]; [10]): < 100 nM; Kd (BRD4(1) [1]; ITC Ka, BRD4(1)): 685 nM; Kd (BRD4(1) [1]; ITC Kd BRD4(1), 15 °C): 530 ± 74 nM; Selectivity for CBP over BRD4(1) (BRD4(1) [1]): 20-fold; Kd (CBP [2]; ITC Kd CBP, 15 °C): 26 ± 2.6 nM
COC(Cn1c(CCc2ccccc2)nc2cc(-c3c(C)noc3C)ccc21)OC [Compound 13] | 0.27 °C |  |  |  |  |  |  |  |  |  | IC50 (CBP [4]; read-out: AlphaScreen IC50 CBP): 460000 nM
Cc1noc(C)c1-c1ccc2c(c1)ncn2Cc1ccc(Cl)cc1 [Compound 7] |  |  |  |  |  |  |  |  |  |  | CBP pIC50 (CBP [6]): 5.7
Cc1noc(C)c1-c1ccc2c(c1)nc(CC(C)(C)C)n2CCN(C)C [Compound 8] | 4.5 °C |  |  |  |  |  |  |  |  |  | IC50 (CBP [4]; [10]): 501 nM; ΔTm at 10 µM (BRD4(1) [5]): 3.2 °C
COc1ccc(CCc2cc3cc(-c4c(C)noc4C)ccc3n2CCN2CCOCC2)cc1Cl [Compound 40] | 2 °C |  |  |  |  |  |  |  |  |  | ΔTm at 10 µM (BRD4(1) [5]): < 1 °C
Cc1noc(C)c1-c1ccc2c(c1)nc(CCc1cccc(F)c1)n2CCN1CCOCC1 [Compound 30] | 7.1 °C |  |  |  |  |  |  |  |  |  | 
COc1ccc(CCc2nc3cc(-c4c(C)noc4C)ccc3n2CCN2CCOCC2)cc1 [Compound 26] | 8.1 °C |  |  |  |  |  |  |  |  |  | 
COc1ccc(CCc2nc3cc(-c4c(C)noc4C)ccc3n2CCN2CCOCC2)cc1Cl [Compound 32] | 9 °C | 0.604 ± 0.00325 | -8.32 kcal/mol | -9.99 ± 0.0746 kcal/mol | 1.670 kcal/mol | 1.18 ± 0.00143 | -10.1 kcal/mol | -10.8 ± 0.0290 kcal/mol | 0.760 kcal/mol | 22.3 nM | ITC Ka, BRD4(1) (BRD4(1) [1]): 2.26 ± 0.121 106 M91; Selectivity for CBP over BRD4(1) (BRD4(1) [1]): 17-fold
Cc1noc(C)c1-c1ccc2c(c1)nc(CCc1ccccc1)n2CCN1CCNCC1 [Compound 19] | 6.5 °C |  |  |  |  |  |  |  |  |  | IC50 (CBP [4]; read-out: AlphaScreen IC50 CBP): 750 nM; ΔTm at 10 µM (BRD4(1) [5]): 4 °C; IC50 (BRD4(1) [7]): 7500 nM
COc1ccc(CCc2nc3cc(-c4c(C)noc4C)ccc3n2C[C@H](C)N2CCOCC2)cc1F [Compound 63] | ~10 °C |  |  |  |  |  |  |  |  |  | IC50 (CBP [4]; [10]): < 100 nM; Kd (BRD4(1) [1]; ITC Kd BRD4(1), 15 °C): 610 ± 54 nM; Selectivity for CBP over BRD4(1) (BRD4(1) [1]): 16-fold; Kd (CBP [2]; ITC Kd CBP, 15 °C): 39 ± 2.9 nM
Cc1noc(C)c1-c1ccc2c(c1)nc(CCc1ccccc1)n2CCN1CCSCC1 [Compound 20] | 6.6 °C |  |  |  |  |  |  |  |  |  | IC50 (CBP [4]; read-out: AlphaScreen IC50 CBP): 440 nM; ΔTm at 10 µM (BRD4(1) [5]): 3.9 °C; IC50 (BRD4(1) [7]): 9500 nM
Cc1noc(C)c1-c1ccc(NC[C@H](C)N2CCOCC2)c([N+](=O)[O-])c1 [Compound 57] |  | 1.04 ± 0.0101 | -7.78 kcal/mol | -8.50 ± 0.108 kcal/mol | 0.725 kcal/mol | 0.983 ± 0.00535 | -8.50 kcal/mol | -14.0 ± 0.0994 kcal/mol | 5.72 kcal/mol | 368 nM | Kd (BRD4(1) [1]; ITC Ka, BRD4(1)): 1210 nM
Cc1noc(C)c1-c1ccc2c(c1)nc(CCn1ccc3ccccc31)n2C[C@@H](C)N1CCOCC1 [Compound 60] |  | 0.84 ± 0.0113 | -8.30 kcal/mol | -7.46 ± 0.127 kcal/mol | -0.844 kcal/mol | 0.88 ± 0.00202 | -10.0 kcal/mol | -9.59 ± 0.0406 kcal/mol | -0.420 kcal/mol | 26.2 nM | Kd (BRD4(1) [1]; ITC Ka, BRD4(1)): 532 nM
COc1ccc2c(c1)N(CCCNC(=O)c1cccc3c1N[C@H](C)C(=O)N3)CCC2 [Compound 4] |  |  |  |  |  |  |  |  |  |  | Kd (CBP BRD): 390 nM
O=C(CCCCCCC(=O)Nc1ccccc1)NO [SAHA, reference compound] |  |  |  |  |  |  |  |  |  |  | FRAP half-time of fluorescence recovery (t1/2), GFP-tagged 3× CBP BRD ([8]; DMSO + SAHA, no BRD inhibitor): 0.79 s
Cc1noc(C)c1-c1ccc2nc[nH]c2c1 [Compound 5] |  |  |  |  |  |  |  |  |  |  | CBP pIC50 (CBP [6]): 5.4; BRD4(1) pIC50 (BRD4(1) [9]): 5.2
Cc1noc(C)c1-c1ccc2ncn(Cc3ccc(C#N)cc3)c2c1 [Compound 6] |  |  |  |  |  |  |  |  |  |  | CBP pIC50 (CBP [6]): < 4.0; BRD4(1) pIC50 (BRD4(1) [9]): 6.7; FRAP half-time of fluorescence recovery (t1/2), GFP-tagged 3× CBP BRD ([8]; SAHA-treated, compound 0.1 μM): 0.74 s
Cc1ccc(CCc2nc3cc(-c4c(C)noc4C)ccc3n2CCN2CCOCC2)cc1 [Compound 25] | 7.4 °C | 0.987 ± 0.0033 | -8.24 kcal/mol | -8.74 ± 0.0402 kcal/mol | 0.501 kcal/mol | 1.02 ± 0.00208 | -9.63 kcal/mol | -9.70 ± 0.0399 kcal/mol | 0.0674 kcal/mol | 49.5 nM | Kd (BRD4(1) [1]; ITC Ka, BRD4(1)): 546 nM
COc1ccc(CCc2nc3cc(-c4c(C)noc4C)ccc3n2CCN2CCOCC2)cc1F [Compound 33] | 9.6 °C |  |  |  |  |  |  |  |  |  | Kd (BRD4(1) [1]; ITC Kd BRD4(1), 15 °C): 440 ± 25 nM; Selectivity for CBP over BRD4(1) (BRD4(1) [1]): 20-fold
COc1ccc(CCc2nc3cc(-c4c(C)noc4C)ccc3n2C[C@@H](C)N2CCOCC2)cc1F [Compound 62] |  | 0.859 ± 0.00961 | -8.17 kcal/mol | -9.15 ± 0.128 kcal/mol | 0.978 kcal/mol | 1.08 ± 0.0029 | -9.71 kcal/mol | -11.1 ± 0.0496 kcal/mol | 1.37 kcal/mol | 39.4 nM | Kd (BRD4(1) [1]; ITC Ka, BRD4(1)): 606 nM
Cc1noc(C)c1-c1ccc2c(c1)nc(CCc1ccccc1)n2CCN1CCC1 [Compound 14] | 4.4 °C |  |  |  |  |  |  |  |  |  | IC50 (CBP [4]; read-out: AlphaScreen IC50 CBP): 570 nM; ΔTm at 10 µM (BRD4(1) [5]): 2.6 °C; IC50 (BRD4(1) [7]): 22000 nM
Cc1noc(C)c1-c1ccc2c(c1)nc(CCc1ccc(F)cc1)n2CCN1CCOCC1 [Compound 31] |  | 0.674 ± 0.00495 | -8.35 kcal/mol | -8.02 ± 0.0815 kcal/mol | -0.331 kcal/mol | 0.887 ± 0.00152 | -9.98 kcal/mol | -9.63 ± 0.0319 kcal/mol | -0.346 kcal/mol | 27.7 nM | Kd (BRD4(1) [1]; ITC Ka, BRD4(1)): 478 nM
